Test results taken from PubChem BioAssay (NCI).
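GI50: concentration for 50% inhibition of growth. The concentration for full growth arrest is given as TGI.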

Key:
Experiment in all cases: growth of human tumour cells (NCI), 384-well format
[1] = test system: MDA-MB-468 breast
[2] = test system: CCRF-CEM leukemia
[3] = test system: SN12C renal
[4] = test system: IGROV1 ovarian
[5] = test system: NCI-H460 NSCLC
[6] = test system: MCF7 breast
[7] = test system: SNB-19 CNS
[8] = test system: MOLT-4 leukemia
[9] = test system: OVCAR-5 ovarian
[10] = test system: PC-3 prostate
[11] = test system: HL-60(TB) leukemia
[12] = test system: SF-539 CNS
[13] = test system: SF-295 CNS
[14] = test system: M14 melanoma
[15] = test system: RPMI-8226 leukemia
[16] = test system: CAKI-1 renal
[17] = test system: OVCAR-4 ovarian
[18] = test system: HOP-62 NSCLC
[19] = test system: A498 renal
[20] = test system: SF-268 CNS
[21] = test system: HCT-116 colon
[22] = test system: SK-MEL-28 melanoma
[23] = test system: HCT-15 colon
[24] = test system: NCI-H322M lung
[25] = test system: T-47D breast
[26] = test system: 786-0 renal
[27] = test system: MDA-MB-435 melanoma
[28] = test system: LOX IMVI melanoma
[29] = test system: UACC-257 melanoma
[30] = test system: COLO 205 colon
[31] = test system: HS 578T breast
[32] = test system: SR leukemia
[33] = test system: A549 NSCLC
[34] = test system: OVCAR-8 ovarian
[35] = test system: TK-10 renal
[36] = test system: HOP-92 NSCLC
[37] = test system: ACHN renal
[38] = test system: DU-145 prostate
[39] = test system: SK-OV-3 ovarian
[40] = test system: OVCAR-3 ovarian
[41] = test system: SK-MEL-5 melanoma
[42] = test system: RXF 393 renal
[43] = test system: HCC-2998 colon
[44] = test system: U251 glioblastoma
[45] = test system: NCI/ADR-RES ovarian
[46] = test system: SW-620 colon
[47] = test system: UACC-62 melanoma
[48] = test system: KM12 colon
[49] = test system: NCI-H226 lung
[50] = test system: BT-549 breast
[51] = test system: NCI-H522 lung
[52] = test system: EKVX NSCLC
[53] = test system: MALME-3M melanoma
[54] = test system: UO-31 renal
[55] = test system: SNB-75 CNS
[56] = test system: NCI-H23 lung
[57] = test system: HT29 colon
[58] = test system: MDA-MB-231 breast
[59] = test system: SK-MEL-2 melanoma
[60] = test system: K-562 leukemia

SMILES: Cc1cnc(Nc2ccc(OCCN3CCCC3)cc2)nc1Nc1cccc(S(=O)(=O)NC(C)(C)C)c1
- GI50 [1]: 1.2 µM
- TGI [1]: 2.64 µM
- GI50 [2]: 1.4 µM
- TGI [2]: 2.75 µM
- GI50 [3]: 1.54 µM
- TGI [3]: 4.49 µM
- GI50 [4]: 1.08 µM
- TGI [4]: 2.65 µM
- GI50 [5]: 1.88 µM
- TGI [5]: 11.7 µM
- GI50 [6]: 1.16 µM
- TGI [6]: 2.68 µM
- GI50 [7]: 2.97 µM
- TGI [7]: 8.89 µM
- GI50 [8]: 0.428 µM
- TGI [8]: 1.48 µM
- GI50 [9]: 1.67 µM
- TGI [9]: 5.63 µM
- GI50 [10]: 1.44 µM
- TGI [10]: 8.68 µM
- GI50 [11]: 0.464 µM
- TGI [11]: 1.34 µM
- GI50 [12]: 1.51 µM
- TGI [12]: 2.86 µM
- GI50 [13]: 2.74 µM
- TGI [13]: 8.67 µM
- GI50 [14]: 1.02 µM
- TGI [14]: 2.5 µM
- GI50 [15]: 0.624 µM
- TGI [15]: 1.78 µM
- GI50 [16]: 0.593 µM
- TGI [16]: 1.71 µM
- GI50 [17]: 1.6 µM
- TGI [17]: 3.65 µM
- GI50 [18]: 2 µM
- TGI [18]: 4.87 µM
- GI50 [19]: 0.909 µM
- TGI [19]: 3.09 µM
- GI50 [20]: 1.9 µM
- TGI [20]: 4.22 µM
- GI50 [21]: 0.635 µM
- TGI [21]: 2.07 µM
- GI50 [22]: 3.61 µM
- TGI [22]: 11.6 µM
- GI50 [23]: 1.66 µM
- TGI [23]: 4.31 µM
- GI50 [24]: 1.24 µM
- TGI [24]: 7.23 µM
- GI50 [25]: 1.78 µM
- TGI [25]: 5.21 µM
- GI50 [26]: 1.27 µM
- TGI [26]: 2.55 µM
- GI50 [27]: 2.61 µM
- TGI [27]: 11.6 µM
- GI50 [28]: 0.815 µM
- TGI [28]: 2.05 µM
- GI50 [29]: 1.73 µM
- TGI [29]: 3.12 µM
- GI50 [30]: 1.82 µM
- TGI [30]: 3.28 µM
- GI50 [31]: 0.837 µM
- TGI [31]: 2.27 µM
- GI50 [32]: 0.372 µM
- TGI [32]: 1.36 µM
- GI50 [33]: 1.37 µM
- TGI [33]: 2.73 µM
- GI50 [34]: 1.54 µM
- TGI [34]: 2.92 µM
- GI50 [35]: 1.55 µM
- TGI [35]: 3.19 µM
- GI50 [36]: 1.02 µM
- TGI [36]: 2.22 µM
- GI50 [37]: 1.3 µM
- TGI [37]: 2.85 µM
- GI50 [38]: 1.08 µM
- TGI [38]: 2.87 µM
- GI50 [39]: 0.604 µM
- TGI [39]: 1.84 µM
- GI50 [40]: 1.27 µM
- TGI [40]: 4.51 µM
- GI50 [41]: 1.32 µM
- TGI [41]: 2.63 µM
- GI50 [42]: 0.707 µM
- TGI [42]: 1.66 µM
- GI50 [43]: 1.39 µM
- TGI [43]: 2.86 µM
- GI50 [44]: 2.57 µM
- TGI [44]: 12.4 µM
- GI50 [45]: 6.43 µM
- TGI [45]: 18.3 µM
- GI50 [46]: 1.57 µM
- TGI [46]: 3.64 µM
- GI50 [47]: 1 µM
- TGI [47]: 2.67 µM
- GI50 [48]: 0.418 µM
- TGI [48]: 5.55 µM
- GI50 [49]: 0.74 µM
- TGI [49]: 1.94 µM
- GI50 [50]: 1.62 µM
- TGI [50]: 3.01 µM
- GI50 [51]: 0.523 µM
- TGI [51]: 1.68 µM
- GI50 [52]: 1.77 µM
- TGI [52]: 3.98 µM
- GI50 [53]: 1.45 µM
- TGI [53]: 3.04 µM
- GI50 [54]: 1.77 µM
- TGI [54]: 3.17 µM
- GI50 [55]: 0.869 µM
- TGI [55]: 2.16 µM
- GI50 [56]: 1.45 µM
- TGI [56]: 3.35 µM
- GI50 [57]: 1.42 µM
- TGI [57]: 2.79 µM
- GI50 [58]: 1.06 µM
- TGI [58]: 2.35 µM

SMILES: COc1cc2ncnc3c2cc1OCCCCCN(C)Cc1ccc(Br)cc1N3
- GI50 [1]: 0.0909 µM
- TGI [1]: 0.356 µM
- GI50 [2]: 4 µM
- TGI [2]: > 100 µM
- GI50 [3]: 1.1 µM
- TGI [3]: > 100 µM
- GI50 [4]: 0.419 µM
- TGI [4]: 2.85 µM
- GI50 [5]: 3.37 µM
- TGI [5]: > 100 µM
- GI50 [6]: 8.25 µM
- TGI [6]: > 100 µM
- GI50 [7]: > 100 µM
- TGI [7]: > 100 µM
- GI50 [8]: 2.15 µM
- GI50 [9]: 3.95 µM
- TGI [9]: > 100 µM
- GI50 [10]: 4.02 µM
- TGI [10]: > 100 µM
- GI50 [11]: 1.66 µM
- TGI [11]: 3.28 µM
- GI50 [12]: > 100 µM
- TGI [12]: > 100 µM
- GI50 [13]: 7.08 µM
- TGI [13]: > 100 µM
- GI50 [14]: 3.82 µM
- TGI [14]: > 100 µM
- GI50 [15]: 2.58 µM
- TGI [15]: > 20.6 µM
- GI50 [16]: 1.36 µM
- TGI [16]: > 100 µM
- GI50 [17]: 2.39 µM
- TGI [17]: > 100 µM
- GI50 [18]: 4.74 µM
- TGI [18]: > 100 µM
- GI50 [19]: 0.383 µM
- TGI [19]: > 100 µM
- GI50 [20]: > 100 µM
- TGI [20]: > 100 µM
- GI50 [21]: 3.8 µM
- TGI [21]: > 100 µM
- GI50 [22]: > 27.3 µM
- TGI [22]: > 100 µM
- GI50 [23]: 2.86 µM
- TGI [23]: > 100 µM
- GI50 [24]: 0.191 µM
- TGI [24]: 1.46 µM
- GI50 [25]: 0.798 µM
- TGI [25]: > 20.7 µM
- GI50 [26]: 3.92 µM
- TGI [26]: > 100 µM
- GI50 [28]: 3.67 µM
- TGI [28]: > 100 µM
- GI50 [29]: > 100 µM
- TGI [29]: > 100 µM
- GI50 [30]: > 21.1 µM
- TGI [30]: > 100 µM
- GI50 [31]: 1.84 µM
- TGI [31]: > 100 µM
- GI50 [32]: 1.72 µM
- TGI [32]: 5.17 µM
- GI50 [33]: 2.64 µM
- TGI [33]: > 100 µM
- GI50 [34]: 3.02 µM
- TGI [34]: > 100 µM
- GI50 [35]: 0.352 µM
- TGI [35]: > 100 µM
- GI50 [36]: 3.32 µM
- TGI [36]: > 100 µM
- GI50 [37]: 0.263 µM
- TGI [37]: > 19.9 µM
- GI50 [59]: 2.22 µM
- TGI [59]: > 22 µM
- GI50 [38]: 1.52 µM
- TGI [38]: > 100 µM
- GI50 [39]: 0.643 µM
- TGI [39]: 5.34 µM
- GI50 [40]: 1.07 µM
- TGI [40]: > 100 µM
- GI50 [41]: 3.32 µM
- TGI [41]: > 100 µM
- GI50 [42]: 3.22 µM
- TGI [42]: > 100 µM
- GI50 [43]: 5.37 µM
- TGI [43]: > 100 µM
- GI50 [60]: 3.88 µM
- TGI [60]: > 100 µM
- GI50 [44]: 5.7 µM
- TGI [44]: > 100 µM
- GI50 [45]: 3.03 µM
- TGI [45]: > 100 µM
- GI50 [46]: 6.27 µM
- TGI [46]: > 100 µM
- GI50 [47]: 2.16 µM
- TGI [47]: > 100 µM
- GI50 [48]: 7.47 µM
- TGI [48]: > 100 µM
- GI50 [49]: 5.87 µM
- TGI [49]: > 100 µM
- GI50 [51]: 0.287 µM
- TGI [51]: 2.97 µM
- GI50 [52]: 0.612 µM
- TGI [52]: > 100 µM
- GI50 [53]: 3.33 µM
- TGI [53]: > 100 µM
- GI50 [54]: 1.45 µM
- TGI [54]: > 100 µM
- GI50 [55]: 4.58 µM
- TGI [55]: > 100 µM
- GI50 [56]: 4.73 µM
- TGI [56]: > 100 µM
- GI50 [57]: > 20.9 µM
- TGI [57]: > 100 µM
- GI50 [58]: 7.15 µM
- TGI [58]: > 100 µM
